From patent US20140128606A1, “ANTIPRURITIC AGENT” (Toray Industries, Inc., priority 2011, published 2014)
Structures can show the parent of a compound that is named as a salt.

Tests used:
[1] = test system: substance P-induced scratching behavior; assay: Inhibitory effect on substance P-induced scratching behavior in mice (MicroAct automatic detection); assay type: in vivo, mouse; conditions: substance P 250 nmol/site; for Number of scratching behavior (means ± standard error): i.p., counted for 15 minutes
Text: Substance P-induced scratching behavior in mice which is an intractable pruritus model was induced by the method described in a known document (Togashi et al., European Journal of Pharmacology, 2002, Vol. 435, p. 259 and the like). Further, evaluation of the scratching behavior was objectively carried out by automatic detection using MicroAct (NeuroScience, Inc.) based on the method described in a known document (Hashimoto et al., Allergology International, 2004, Vol. 53, p. 349).
More particularly, at least five days before the evaluation of drug effect, neodymium magnets (diameter: 1 mm, length: 3 mm) coated with Parafilm were subcutaneously inserted into the insteps of both hind limbs of 5 to 7 week-old male ICR mouse (Japan SLC, Inc.) under isoflurane anesthesia. One or two days before the day of the evaluation of drug effect, the hair of the rostral part of the back of the mouse was shaved with a hair clipper under isoflurane anesthesia. At least one hour before the start of the measurement of the number of scratching behavior, each mouse (6 to 8 weeks old) was individually placed in a chamber for measurement (diameter: 11 cm, height: 18 cm) for acclimation. After the acclimation, substance P (5 mmol/L) or phosphate-buffered saline (hereinafter referred to as PBS) as a solvent thereof was intradermally administered (0.05 mL/site) into the rostral part of the back, and the measurement of the number of scratching behavior was started immediately after the administration. The number of scratching behavior was recorded by amplifying electric current induced by the movement of the magnets inserted in the hind limbs in a round coil surrounding the chamber for measurement. The measurement was carried out under unattended environment, and the evaluation of the drug effect was carried out by using the number of scratching behavior occurred for 15 minutes after the start of the measurement as an index.
A test compound or a solvent thereof was administered in an amount of 10 mL/kg 30 to 60 minutes before the start of the measurement of the number of scratching behavior. Varenicline tartrate (Tocris Bioscience) was dissolved in PBS and intraperitoneally administered in a dose of 1, 3 or 10 mg/kg 60 minutes before the start of the measurement of the number of scratching behavior. N-(1-azabicyclo[2.2.2]oct-3(R)-yl)-4-chlorobenzamide hydrochloride (PNU-282987) hydrate (Sigma-Aldrich) was dissolved in PBS and intraperitoneally administered in a dose of 0.3 or 1 mg/kg 45 minutes before the start of the measurement of the number of scratching behavior. The compound of Reference Example 1 was dissolved in PBS and intraperitoneally administered in a dose of 0.1 or 0.3 mg/kg 30 minutes before the start of the measurement of the number of scratching behavior. The compound of Reference Example 2 was dissolved in PBS and intraperitoneally administered in a dose of 1, 3, or 10 mg/kg 45 minutes before the start of the measurement of the number of scratching behavior. The compound of Reference Example 3 was dissolved in distilled water and orally administered in a dose of 1, 3, or 10 mg/kg 30 minutes before the start of the measurement of the number of scratching behavior. The compound of Reference Example 4 was dissolved in PBS and intraperitoneally administered in a dose of 1, 3, or 10 mg/kg 45 minutes before the start of the measurement of the number of scratching behavior. The compound of Reference Example 5 was dissolved in PBS and intraperitoneally administered in a dose of 1, 3, or 10 mg/kg 30 minutes before the start of the measurement of the number of scratching behavior. The compound of Reference Example 6 was dissolved in PBS and intraperitoneally administered in a dose of 1, 3, or 10 mg/kg, 30 minutes before the start of the measurement of the number of scratching behavior. […]

[2] = test system: substance P-induced scratching behavior; assay: Effect of nicotinic acetylcholine receptor antagonist (mecamylamine hydrochloride) on inhibition of substance P-induced scratching behavior by varenicline; assay type: in vivo, mouse; conditions: varenicline tartrate 3 mg/kg + mecamylamine hydrochloride 3 mg/kg, i.p., 60 minutes before; substance P 250 nmol/site
Protocol: The induction and measurement of the number of substance P-induced scratching behavior were carried out by the same method as described in Example 1.
Varenicline tartrate (0.3 mg/mL, Tocris Bioscience), mecamylamine hydrochloride (0.3 mg/mL, Tocris Bioscience), a mixed solution of varenicline tartrate and mecamylamine hydrochloride (both 0.3 mg/mL), or PBS which was a solvent thereof, was intraperitoneally administered in an amount of 10 mL/kg 60 minutes before the start of the measurement of the number of scratching behavior.
With regard to statistical processing, Student's t-test was performed when variances were homogeneity by F-test, and Aspin-Welch test was performed when variances were heterogeneity. A level of significance was set to 5% (two-tailed).
The vertical axis indicates the number of scratching behavior occurred for 15 minutes (mean±standard error, n=5 to 8). […]

**Q.** What does the source list for `c1cnc2cc3c(cc2n1)C1CNCC3C1` [Varenicline tartrate, 7,8,9,10-tetrahydro-6H-6,10-methanopyrazino[2,3-h][3]benzazepine, reference compound]?
**A.** inhibition at 1 mg/kg ([1]; Mus musculus, ip, 1 mg/kg, read-out: Inhibition rate): 15%; inhibition at 3 mg/kg ([1]; Mus musculus, ip, 3 mg/kg, read-out: Inhibition rate): 64%; inhibition at 10 mg/kg ([1]; Mus musculus, ip, 10 mg/kg, read-out: Inhibition rate): 101%; Number of scratching behavior (means ± standard error) ([1]; 1 mg/kg): 103 ± 19; Number of scratching behavior (means ± standard error) ([1]; 3 mg/kg): 54 ± 7; Number of scratching behavior (means ± standard error) ([1]; 10 mg/kg): 17 ± 3; Effect of inhibiting the substance P-induced scratching behavior when used in combination with mecamylamine hydrochloride [2]: completely disappeared
